“And” between values parts separate entries of the source, which are not always exact repeats. Equal values may be shown once. Inconclusive results are not listed.
Test system: BDF1 mice, colon carcinoma 38 sc, T/C %
Assay: NCI In Vivo Anticancer Drug Screen. Data for tumor model Colon Carcinoma 38 (subcutaneous) in B6D2F1 (BDF1) mice
Conditions: endpoint: median tumor weight (est.), higher = larger tumour
How it was run: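 Transplantable tumor in mice; compound-treated vs vehicle-dosed controls. Measured survival or tumor size; value = T ÷ C.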

[1] = dose: 12.5 mg/kg/injection, schedule: Q07DX002 (ip), vehicle: Klucel (hydroxypropylcellulose) (HPC)
[2] = dose: 200.0 mg/kg/injection, schedule: Q07DX002 (ip), vehicle: Klucel (hydroxypropylcellulose) (HPC)
[3] = dose: 25.0 mg/kg/injection, schedule: Q07DX002 (ip), vehicle: Klucel (hydroxypropylcellulose) (HPC)
[4] = dose: 50.0 mg/kg/injection, schedule: Q07DX002 (ip), vehicle: Klucel (hydroxypropylcellulose) (HPC)
[5] = dose: 100.0 mg/kg/injection, schedule: Q07DX002 (ip), vehicle: Klucel (hydroxypropylcellulose) (HPC)
[6] = dose: 800.0 mg/kg/injection, schedule: Q07DX002 (ip), vehicle: Klucel (hydroxypropylcellulose) (HPC)
[7] = dose: 12.5 mg/kg/injection, schedule: Q07DX002 (ip), vehicle: saline with Tween-80
[8] = dose: 50.0 mg/kg/injection, schedule: Q07DX002 (ip), vehicle: saline with Tween-80
[9] = dose: 12.5 mg/kg/injection, schedule: Q07DX003 (ip), vehicle: Klucel (hydroxypropylcellulose) (HPC)
[10] = dose: 50.0 mg/kg/injection, schedule: Q07DX003 (ip), vehicle: Klucel (hydroxypropylcellulose) (HPC)

Structure (SMILES): CC(=O)OCC1OC(n2ncc(=O)[nH]c2=O)C(OC(C)=O)C1OC(C)=O (configuration not stated)
- T/C (dose: 50.0 mg/kg/injection, schedule: Q07DX002 (ip), vehicle: suspension in saline): 100 % of control
- T/C (dose: 100.0 mg/kg/injection, schedule: Q07DX002 (ip), vehicle: suspension in saline): 95 % of control
- T/C (dose: 200.0 mg/kg/injection, schedule: Q07DX002 (ip), vehicle: suspension in saline): 52 % of control
- T/C (dose: 400.0 mg/kg/injection, schedule: Q07DX002 (ip), vehicle: suspension in saline): 66 % of control
- T/C (dose: 800.0 mg/kg/injection, schedule: Q07DX002 (ip), vehicle: suspension in saline): 64 % of control

Structure (SMILES): CC(=O)[O][Pb]([O]C(C)=O)([c]1ccccc1)[c]1ccccc1
- T/C [1]: 216 % of control
- T/C [2]: 72 % of control

Structure (SMILES): CCc1ncnc2cc(OCC3CO3)c(OC)cc12 (configuration not stated)
- T/C (dose: 25.0 mg/kg/injection, schedule: Q07DX002 (ip), vehicle: saline): 93 % of control
- T/C (dose: 50.0 mg/kg/injection, schedule: Q07DX002 (ip), vehicle: saline): 47 % of control

Structure (SMILES): CC[n+]1c(-c2ccccc2)c2cc(N)ccc2c2ccc(N)cc21
- T/C (dose: 2.5 mg/kg/injection, schedule: Q07DX002 (ip), vehicle: saline): 99 % of control
- T/C (dose: 20.0 mg/kg/injection, schedule: Q07DX002 (ip), vehicle: saline): 118 % of control and 103 % of control

Structure (SMILES): C[n+]1c(-c2cccc(OCCOCCOc3cccc(-c4c5cc(N)ccc5c5ccc(N)cc5[n+]4C)c3)c2)c2cc(N)ccc2c2ccc(N)cc21
- T/C (dose: 1.0 mg/kg/injection, schedule: Q07DX002 (ip), vehicle: water): 53 % of control
- T/C (dose: 4.0 mg/kg/injection, schedule: Q07DX002 (ip), vehicle: water): 44 % of control and 45 % of control
- T/C (dose: 32.0 mg/kg/injection, schedule: Q07DX002 (ip), vehicle: water): 81 % of control

Structure (SMILES): COc1ccc2[nH]c3ccc4cc[n+](CCN5CCC(C6CCN(CC[n+]7ccc8ccc9[nH]c%10ccc(OC)cc%10c9c8c7)CC6)CC5)cc4c3c2c1
- T/C [3]: 79 % of control
- T/C [4]: 70 % of control
- T/C [5]: 56 % of control

Structure (SMILES): N#CCCN(C(=S)Nc1cccc(C(F)(F)F)c1)C1CCCCC1
- T/C [4]: 67 % of control and 71 % of control
- T/C [2]: 76 % of control and 80 % of control and 88 % of control
- T/C [6]: 79 % of control and 92 % of control

Structure (SMILES): S=P(N1CC1)(N1CC1)N1CC1
- T/C (dose: 1.5 mg/kg/injection, schedule: Q07DX003 (ip), vehicle: saline): 99 % of control
- T/C (dose: 3.0 mg/kg/injection, schedule: Q07DX003 (ip), vehicle: saline): 50 % of control
- T/C (dose: 6.0 mg/kg/injection, schedule: Q07DX003 (ip), vehicle: saline): 55 % of control

Structure (SMILES): N=C(N)c1ccc(/C=C/c2ccc(C(=N)N)cc2)cc1
- T/C [1]: 73 % of control
- T/C [3]: 114 % of control
- T/C (dose: 36.0 mg/kg/injection, schedule: Q07DX002 (ip), vehicle: saline with Tween-80): 67 % of control

Structure (SMILES): Nc1ccc(S(=O)(=O)c2ccc(N)cc2)cc1
- T/C (dose: 6.25 mg/kg/injection, schedule: Q07DX002 (ip), vehicle: saline with Tween-80): 154 % of control
- T/C [7]: 111 % of control
- T/C [8]: 85 % of control and 92 % of control
- T/C (dose: 56.0 mg/kg/injection, schedule: Q07DX002 (ip), vehicle: saline with Tween-80): 109 % of control
- T/C (dose: 450.0 mg/kg/injection, schedule: Q07DX002 (ip), vehicle: saline with Tween-80): 87 % of control
- T/C (dose: 900.0 mg/kg/injection, schedule: Q07DX002 (ip), vehicle: saline with Tween-80): 71 % of control

Structure (SMILES): C=CCNc1nc2c(s1)CCc1cc(OC)c(OC)cc1-2
- T/C [7]: 94 % of control
- T/C (dose: 200.0 mg/kg/injection, schedule: Q07DX002 (ip), vehicle: saline with Tween-80): 109 % of control and 111 % of control
- T/C (dose: 400.0 mg/kg/injection, schedule: Q07DX002 (ip), vehicle: saline with Tween-80): 73 % of control

Structure (SMILES): NC(=S)N/N=C\c1ncccc1OCc1cccc(N)c1
- T/C (dose: 25.0 mg/kg/injection, schedule: Q07DX002 (ip), vehicle: distilled water + Tween-80): 80 % of control
- T/C (dose: 50.0 mg/kg/injection, schedule: Q07DX002 (ip), vehicle: distilled water + Tween-80): 79 % of control
- T/C (dose: 100.0 mg/kg/injection, schedule: Q07DX002 (ip), vehicle: distilled water + Tween-80): 78 % of control
- T/C (dose: 200.0 mg/kg/injection, schedule: Q07DX002 (ip), vehicle: distilled water + Tween-80): 71 % of control
- T/C (dose: 400.0 mg/kg/injection, schedule: Q07DX002 (ip), vehicle: distilled water + Tween-80): 80 % of control

Structure (SMILES): O=C1C=CN(C2OC(CO)C(O)C2O)C(=O)C1 (configuration not stated)
- T/C (dose: 25.0 mg/kg/injection, schedule: Q07DX003 (ip), vehicle: saline): 121 % of control
- T/C (dose: 100.0 mg/kg/injection, schedule: Q07DX003 (ip), vehicle: saline): 73 % of control
- T/C (dose: 200.0 mg/kg/injection, schedule: Q07DX003 (ip), vehicle: saline): 163 % of control

Structure (SMILES): NC(=O)/C=C/c1c[nH]c2nccnc12
- T/C (dose: 6.25 mg/kg/injection, schedule: Q07DX002 (ip), vehicle: water): 59 % of control
- T/C (dose: 12.5 mg/kg/injection, schedule: Q07DX002 (ip), vehicle: water): 97 % of control
- T/C (dose: 25.0 mg/kg/injection, schedule: Q07DX002 (ip), vehicle: water): 116 % of control
- T/C (dose: 100.0 mg/kg/injection, schedule: Q07DX002 (ip), vehicle: water): 94 % of control

Structure (SMILES): O=c1[nH]c(=O)n(C2CC(O)C(CO)O2)cc1Br (configuration not stated)
- T/C [4]: 112 % of control
- T/C (dose: 400.0 mg/kg/injection, schedule: Q07DX002 (ip), vehicle: Klucel (hydroxypropylcellulose) (HPC)): 86 % of control and 87 % of control
- T/C [6]: 88 % of control

Structure (SMILES): Oc1c(Cl)cc(Cl)cc1C=NCCSc1ccc(Cl)cc1
- T/C [4]: 85 % of control
- T/C [5]: 78 % of control
- T/C [2]: 162 % of control

Structure (SMILES): CC(=O)OCc1cc(=O)n(C)c2c3c4c(cc12)c(C)cc(=O)n4CO3
- T/C [9]: 121 % of control and 106 % of control
- T/C (dose: 25.0 mg/kg/injection, schedule: Q07DX003 (ip), vehicle: Klucel (hydroxypropylcellulose) (HPC)): 108 % of control
- T/C [10]: 83 % of control
- T/C (dose: 200.0 mg/kg/injection, schedule: Q07DX003 (ip), vehicle: Klucel (hydroxypropylcellulose) (HPC)): 94 % of control

Structure (SMILES): CCN(CC)C(C)(C)C(=O)/C=C/c1ccccc1
- T/C (dose: 31.25 mg/kg/injection, schedule: Q07DX002 (ip), vehicle: saline with Tween-80): 68 % of control
- T/C (dose: 62.5 mg/kg/injection, schedule: Q07DX002 (ip), vehicle: saline with Tween-80): 39 % of control
- T/C (dose: 125.0 mg/kg/injection, schedule: Q07DX002 (ip), vehicle: saline with Tween-80): 78 % of control
- T/C (dose: 250.0 mg/kg/injection, schedule: Q07DX002 (ip), vehicle: saline with Tween-80): 34 % of control

Structure (SMILES): O=c1s[se]c2ccccc12
- T/C (dose: 3.12 mg/kg/injection, schedule: Q07DX002 (ip), vehicle: saline with Tween-80): 73 % of control
- T/C [7]: 90 % of control
- T/C (dose: 25.0 mg/kg/injection, schedule: Q07DX002 (ip), vehicle: saline with Tween-80): 83 % of control
- T/C [8]: 117 % of control

Structure (SMILES): O=C(O)/C=C/C(=O)Nc1ccc(Cl)c(Cl)c1
- T/C [9]: 84 % of control
- T/C [3]: 67 % of control
- T/C [4]: 77 % of control
- T/C [10]: 69 % of control
- T/C [5]: 78 % of control
- T/C (dose: 100.0 mg/kg/injection, schedule: Q07DX003 (ip), vehicle: Klucel (hydroxypropylcellulose) (HPC)): 122 % of control
- T/C [2]: 67 % of control

— PubChem BioAssay AID212 (DTP/NCI, 2004)
